This assay concerns the target T1, RORc ligand binding domain (Homo sapiens, UniProt P51449).
T1 construct: host or cells: E. coli
T1 sequence (P51449 269-508 limits assumed): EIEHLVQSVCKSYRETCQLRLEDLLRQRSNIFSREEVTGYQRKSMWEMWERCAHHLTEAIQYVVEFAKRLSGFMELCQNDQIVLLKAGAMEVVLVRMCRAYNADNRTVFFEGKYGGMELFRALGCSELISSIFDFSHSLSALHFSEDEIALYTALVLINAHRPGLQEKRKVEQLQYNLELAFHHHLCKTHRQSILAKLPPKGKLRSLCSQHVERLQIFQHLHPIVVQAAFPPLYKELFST
The assay can be described thus: In Vitro RORc Ligand Binding Assay (25-[3H]hydroxycholesterol radioligand filtration). The settings on record: read-out: RORc IC50.

The mark [1] stands for this setting: In Vitro RORc Ligand Binding Assay, Table 4.

A word on the IC50: it is the concentration that gives 50% inhibition.

Read-outs that look alike come from different tables or passages of the source.

As for `CC(=O)N1CCN(c2ccc(CN3CC(C)CC(c4ccccc4)S3(=O)=O)c(F)c2)CC1` (single isomer, unassigned) [Example 68, 1-{4-[3-Fluoro-4-(4-methyl-1,1-dioxo-6-phenyl-[1,2]thiazinan-2-ylmethyl)-phenyl]-piperazin-1-yl}-ethanone], the IC50 under setting [1] amounted to 0.403 µM. The same measure, in the same setting: the value for `C[C@H]1CCC(c2ccccc2)S(=O)(=O)N1Cc1ccc(C(=O)N2CCC3(CC2)COC3)cc1` (stereo partly drawn) [Example 362, [4-((3S)-Methyl-1,1-dioxo-6-phenyl-[1,2]thiazinan-2-ylmethyl)-phenyl]-(2-oxa-7-aza-spiro[3.5]non-7-yl)-methanone] was 0.903 µM. `C[C@H]1CCC(c2ccccc2)S(=O)(=O)N1Cc1ccc(N2C[C@@H]3[C@H](C2)[C@H]3n2cnnc2)cc1F` (stereo partly drawn) [Example 440, (1R,5S,6S)-3-[3-Fluoro-4-((3S)-methyl-1,1-dioxo-6-phenyl-[1,2]thiazinan-2-ylmethyl)-phenyl]-6-[1,2,4]triazol-4-yl-3-aza-bicyclo[3.1.0]hexane]: the IC50 was 0.012 µM. Turning to `C[C@H]1CCC(c2ccccc2)S(=O)(=O)N1Cc1ccc(N2CCn3c(cnc3CO)C2)cc1F` (stereo partly drawn) [Example 404, {7-[3-Fluoro-4-((3S)-methyl-1,1-dioxo-6-phenyl-[1,2]thiazinan-2-ylmethyl)-phenyl]-5,6,7,8-tetrahydro-imidazo[1,5-a]pyrazin-3-yl}-methanol], the IC50 stood at 0.504 µM. Consider `CC(=O)N1CCN(c2ccc(CN3CC(C)CCC(c4ccccc4)S3(=O)=O)c(F)c2)CC1` (single isomer, unassigned) [Example 340, 1-{4-[3-Fluoro-4-(4-methyl-1,1-dioxo-7-phenyl-[1,2]thiazepan-2-ylmethyl)-phenyl]-piperazin-1-yl}-ethanone], for which the IC50 under setting [1] was 0.054 µM. On the same count and under the same terms, the value for `CC(=O)N1CCN(c2ccc(CN3[C@@H](C)CC(c4ccccc4)S3(=O)=O)c(F)c2)CC1` (single isomer, unassigned) [Example 63] was 0.57 µM; that for `C[C@H]1CCC(c2ccccc2)S(=O)(=O)N1Cc1ccc(N2CCN(C3=CC(=O)CC3)CC2)cc1F` (stereo partly drawn) [Example 123, 3-{4-[3-Fluoro-4-((3S)-3-methyl-1,1-dioxo-6-phenyl-[1,2]thiazinan-2-ylmethyl)-phenyl]-piperazin-1-yl}-cyclopent-2-enone] was 0.089 µM.

Take `CC(=O)N1CCN(c2ccc(CN3CCCC(c4ccccc4)S3(=O)=O)c(F)c2)CC1` (single isomer, unassigned) [Example 1]: the concentration for half-maximal inhibition (IC50) under setting [1] was 0.247 µM. The same measure, in the same setting: the value for `CC(=O)N1C[C@@H]2CN(c3ccc(CN4[C@@H](C)CCC(c5ccccc5)S4(=O)=O)c(F)c3)C[C@@H]2C1` (stereo partly drawn) [Example 245, 1-{(3aR,6aS)-5-[3-Fluoro-4-((3S)-methyl-1,1-dioxo-6-phenyl-[1,2]thiazinan-2-ylmethyl)-phenyl]-hexahydro-pyrrolo[3,4-c]pyrrol-2-yl}-ethanone] was 0.189 µM. `C[C@H]1CCC(c2ccccc2)S(=O)(=O)N1Cc1ccc(C(=O)NC2CCC(O)C2)cc1` (single isomer, unassigned) [Example 409]: the IC50 was 1.88 µM.

As for `C[C@H]1CCC(c2ccccc2)S(=O)(=O)N1Cc1ccc(N2CCN(C(=O)CC#N)CC2)cc1F` (single isomer, unassigned) [Example 69], the IC50 under setting [1] turned out to be 0.103 µM. Same read-out and setting: the value for `C[C@H]1CCC(c2ccccc2)S(=O)(=O)N1Cc1ccc(C(=O)N2CCCOCC2)cc1` (stereo partly drawn) [Example 282, [4-((3S)-Methyl-1,1-dioxo-6-phenyl-[1,2]thiazinan-2-ylmethyl)-phenyl]-[1,4]oxazepan-4-yl-methanone] was 5.06 µM; that for `CS(=O)(=O)N1CCC(Nc2ccc(CN3CCCCC(c4ccccc4)S3(=O)=O)c(F)c2)CC1` (single isomer, unassigned) [Example 345, [4-(1,1-Dioxo-7-phenyl-[1,2]thiazepan-2-ylmethyl)-3-fluoro-phenyl]-(1-methanesulfonyl-piperidin-4-yl)-amine] was 0.008 µM; that for `C[C@H]1CCC(c2ccccc2)S(=O)(=O)N1Cc1ccc(OC2CCN(S(C)(=O)=O)CC2)nc1` (single isomer, unassigned) [Example 34] was 0.686 µM.

These data come from patent publication US9115101B2 (Genentech, Inc., priority 2012, dated 2015).
